Results: patent US8728808B2, “Multiple inducible gene regulation system” (Intrexon Corporation, priority 2000, dated 2014)

Tests used:
[1] = test system: LexACfEcR-CDEF/VP16MmRXR-LmUSP-EFchimera; assay: Dual switch reporter assay in NIH3T3 cells, luciferase under 8opLexARE; assay type: cell-based, Choristoneura fumiferana; conditions: mouse NIH3T3 cells, 0.02, 0.1, 0.5, or 2.5 μM ligand, 48 hours, FIG. 1
Excerpt: (§1) A polynucleotide encoding the C, D, E, and F domains from fruit fly Drosophila melanogaster EcR (“DmEcR-CDEF”; SEQ ID NO: 1) was fused to a polynucleotide encoding a GAL4 DNA binding domain (“Gal4DNABD” or “Gal4 DBD”; SEQ ID NO: 2) and placed under the control of a cytomegalovirus (CMV) promoter/enhancer (SEQ ID NO: 3). A polynucleotide encoding the C, D, E, and F domains from spruce budworm Choristoneura fumiferana EcR (“CfEcR-CDEF”; SEQ ID NO: 4) was fused to a polynucleotide encoding a LexA DNA binding domain (“LexADNABD” or “LexADBD”; SEQ ID NO: 5) and placed under the control of a cytomegalovirus (CMV) promoter/enhancer (SEQ ID NO: 3). […]
(§2) DNAs corresponding to the dual switch constructs outlined in Examples 1.1 and 1.2 were transfected into mouse NIH3T3 cells (ATCC; Example 1.1) or CHO cells (ATCC; Example 1.2) as follows. […] One μg of reporter construct and 0.25 μg of each receptor construct of the receptor pair to be analyzed were added to the transfection mix. […]
(§3) Cells were harvested 48 hours after adding ligands and reporter activities were quantified using the Dual-luciferase™ reporter assay system from Promega Corporation. […] Luciferase activity was measured using Dual-luciferase™ reporter assay system from Promega Corporation following the manufacturer's instructions. […]

[2] = molecular target: T1, GAL4DmEcR-CDEF/VP16MmRXR-LmUSP-EFchimera (Drosophila melanogaster, UniProt P34021); assay: Dual switch reporter assay in NIH3T3 cells, SEAP under 6XGAL4RE; assay type: cell-based; conditions: mouse NIH3T3 cells, 0.02, 0.1, 0.5, or 2.5 μM ligand, 48 hours, FIG. 1
T1 construct: C, D, E, and F domains from fruit fly Drosophila melanogaster EcR (“DmEcR-CDEF”); expressed in transfected cells; host or cells: mouse NIH3T3 cells
Excerpt: as §1, §2, §3

[3] = test system: GAL4CfEcR-DEF/VP16MmRXRα-EF; assay: Transactivation of pFRLuc reporter in CHO cells through CfEcR; assay type: cell-based, Choristoneura fumiferana; conditions: hamster CHO cells, 0.1, 1, 5, or 10 μM ligand, 48 hours, FIG. 2
Procedure: (§4) This construct was prepared as follows. A polynucleotide encoding the D, E, and F domains from spruce budworm Choristoneura fumiferana EcR (“CfEcR-DEF”; SEQ ID NO: 14) was fused to a polynucleotide encoding a GAL4DNA binding domain (“GAL4 DBD”; SEQ ID NO: 2) and placed under the control of a cytomegalovirus (CMV) promoter/enhancer (SEQ ID NO: 3). A polynucleotide encoding the C, D and E domains from green leafhopper Nephotelix cincticeps ecdysone receptor (“NcEcR-CDE”; SEQ ID NO: 15) was fused to a polynucleotide encoding a GAL4DNA binding domain (“GAL4 DBD”; SEQ ID NO: 2) and placed under the control of a cytomegalovirus (CMV) promoter/enhancer (SEQ ID NO: 3). […]
as §2, §3

[4] = test system: GAL4NcEcR-CDE/VP16MmRXRα-EF; assay: Transactivation of pFRLuc reporter in CHO cells through NcEcR; assay type: cell-based, Nephotetix cincticeps; conditions: hamster CHO cells, 0.1, 1, 5, or 10 μM ligand, 48 hours, FIG. 2
Procedure: as §4, §2, §3

T1 sequence (P34021 other isoform, or with tags, fused parts or gaps): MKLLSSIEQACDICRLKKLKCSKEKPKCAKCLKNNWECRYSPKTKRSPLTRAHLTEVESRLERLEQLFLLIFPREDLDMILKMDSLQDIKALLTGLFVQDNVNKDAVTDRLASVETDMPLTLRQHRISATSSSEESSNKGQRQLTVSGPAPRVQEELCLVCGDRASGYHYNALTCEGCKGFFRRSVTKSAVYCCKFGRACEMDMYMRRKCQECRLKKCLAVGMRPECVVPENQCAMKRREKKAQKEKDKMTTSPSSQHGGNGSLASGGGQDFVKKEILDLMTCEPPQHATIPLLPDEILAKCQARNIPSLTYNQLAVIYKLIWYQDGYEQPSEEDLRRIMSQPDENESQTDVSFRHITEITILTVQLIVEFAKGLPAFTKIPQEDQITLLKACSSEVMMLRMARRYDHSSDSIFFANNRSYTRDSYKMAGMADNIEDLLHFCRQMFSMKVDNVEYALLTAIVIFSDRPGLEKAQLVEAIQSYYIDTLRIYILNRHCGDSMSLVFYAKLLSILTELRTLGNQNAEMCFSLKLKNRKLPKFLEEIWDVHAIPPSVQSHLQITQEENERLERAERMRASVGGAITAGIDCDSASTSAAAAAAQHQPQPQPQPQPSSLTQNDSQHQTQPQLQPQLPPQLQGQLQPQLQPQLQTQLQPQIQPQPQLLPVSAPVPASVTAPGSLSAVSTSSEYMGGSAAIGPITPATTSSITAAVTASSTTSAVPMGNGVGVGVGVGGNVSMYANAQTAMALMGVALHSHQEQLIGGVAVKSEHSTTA

Compound	induction of luciferase reporter activity (LexACfEcR-CDEF switch) [1]	induction of SEAP reporter activity (GAL4DmEcR-CDEF switch) [2]	induction of luciferase reporter activity regulated by CfEcR-DEF [3]	induction of luciferase reporter activity regulated by NcEcR-CDE [4]
CCc1c(OC)cccc1C(=O)NN(C(=O)c1cc(C)cc(C)c1)C(C)(C)C [GS™-E, N-(2-ethyl-3-methoxybenzoyl)-N′-(3,5-dimethylbenzoyl)-N′-tert-butylhydrazine]	luciferase activity was induced	only luciferase activity was induced	luciferase activity regulated by CfEcR-DEF was induced	does not induce reporter gene expression
CC(C)CC[C@@H](O)[C@](C)(O)[C@H]1CC[C@@]2(O)C3=CC(=O)[C@@H]4C[C@@H](O)[C@@H](O)C[C@]4(C)[C@H]3CC[C@]12C [PonA, ponasterone A]	only SEAP reporter activity was induced	SEAP reporter activity was induced	did not induce reporter gene expression	luciferase reporter activity regulated by NcEcR-DE was induced
